Each compound was assayed against T1, hM1 (human Muscarinic receptor subtype 1) (Homo sapiens, UniProt P11229) (assay: Human M1 calcium mobilization FLIPR assay). Conditions: hM1 expressed in CHO cells, intracellular Ca2+ release, read-out: hM1 EC50.
T1 construct: expressed in transfected cells; host or cells: CHO cells (Chinese hamster ovary cells, ATCC)
T1 sequence (P11229 1-460): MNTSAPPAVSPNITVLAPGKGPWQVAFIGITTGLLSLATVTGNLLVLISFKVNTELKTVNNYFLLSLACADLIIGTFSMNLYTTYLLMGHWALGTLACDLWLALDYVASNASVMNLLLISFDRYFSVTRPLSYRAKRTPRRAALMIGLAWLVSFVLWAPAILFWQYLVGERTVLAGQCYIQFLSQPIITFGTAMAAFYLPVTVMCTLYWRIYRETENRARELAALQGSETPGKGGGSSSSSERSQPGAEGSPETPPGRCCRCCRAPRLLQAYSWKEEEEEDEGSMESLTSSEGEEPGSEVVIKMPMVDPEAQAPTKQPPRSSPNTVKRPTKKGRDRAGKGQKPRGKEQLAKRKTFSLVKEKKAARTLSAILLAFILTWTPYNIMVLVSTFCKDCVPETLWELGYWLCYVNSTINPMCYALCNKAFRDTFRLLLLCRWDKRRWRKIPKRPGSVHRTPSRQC
Type: cell-based
Protocol: Human M1, rat M1, human M3 and human M5 Calcium Mobilization FLIPR™ Assay
The compound activity in the present invention (EC50 or IC50) is measured using a 384 plate-based imaging assay that monitors drug induced intracellular Ca^2+ release in whole cells. Activation of hM1 (human Muscarinic receptor subtype 1, gene bank access NM_000738), rM1 (rat Muscarinic receptor subtype 1, gene bank access NM_080773), hM3 (human Muscarinic receptor subtype 3, gene bank access NM_000740NM_000740) and hM5 (human Muscarinic receptor subtype 5, gene bank access NM_0121258), receptors expressed in CHO cells (Chinese hamster ovary cells, ATCC) is quantified in a Molecular Devices FLIPR II™ instrument as an increase in fluorescent signal. Inhibition of hM3 and hM5 by compounds is determined by the decrease in fluorescent signal in response to 2 nM acetylcholine activation.
Prior to experiment, the cell culture medium is removed from the plates by inversion. […] Plates are incubated at 37° C. for 60 minutes prior to start the experiment. The incubation is terminated by washing the cells four times in assay buffer, leaving a residual 25 μl buffer per well. Cell plates are then transferred to the FLIPR, ready for compound additions.
The day of experiment, acetylcholine and compounds are diluted in assay buffer in three-fold concentration range (10 points serial dilution) for addition by FLIPR instrument. For all calcium assays, a baseline reading is taken for 10 seconds followed by the addition of 12.5 μl of compounds, resulting in a total well volume of 37.5 μl. Data is collected every second for 60 pictures and then every 6 seconds for 20 pictures prior to the addition of agonist. For hM3 and hM5, before agonist addition, a second baseline reading is taken for 10 seconds followed by the addition of 12.5 μl of agonist or buffer, producing a final volume of 50 μl. After agonist stimulation, the FLIPR continues to collect data every second for 60 pictures and then every 6 seconds for 20 pictures. The fluorescence emission is read using filter 1 (emission 510-570 nm) by the FLIPR on board CCD camera.
Calcium mobilization output data are calculated as the maximal relative fluorescence unit (RFU) minus the minimal value for both compound and agonist reading frame (except for hM1 and rM1 using only the maximal RFU). Data are analyzed using sigmoidal fits of a non-linear curve-fitting program (XLfit version 4.2.2 Excel add-in version 4.2.2 build 18 math 1Q version 2.1.2 build 18). All pEC50 and plC50 values are reported as arithmetic means ±standard error of mean of ‘n’ independent experiments.

Row | SMILES | EC50 [nM]
1 | COC(=O)N1CCC(C)(N2CCC(N3C(=O)Cc4cc(F)ccc43)CC2)C1 (racemic) [Example 78, methyl 3-(4-(5-fluoro-2-oxoindolin-1-yl)piperidin-1-yl)-3-methylpyrrolidine-1-carboxylate] | 76.2
2 | CCOC(=O)N1CCC(C)(N2CCC(n3c(=O)[nH]c4cc(C)ccc43)CC2)C1 (single isomer, unassigned) [Example 13, ethyl 3-methyl-3-(4-(5-methyl-2-oxo-2,3-dihydro-1H-benzo[d]imidazol-1-yl)piperidin-1-yl)pyrrolidine-1-carboxylate] | 70.1
3 | CC#CCOC(=O)N1CCC(C)(N2CCC(n3c(=O)[nH]c4ccc(C)cc43)CC2)C1 (single isomer, unassigned) [Example 18, but-2-ynyl 3-methyl-3-(4-(6-methyl-2-oxo-2,3-dihydro-1H-benzo[d]imidazol-1-yl)piperidin-1-yl)pyrrolidine-1-carboxylate] | 158
4 | CC#CCOC(=O)N1CCC(C)(N2CCC(n3c(=O)[nH]c4cc(C)ccc43)CC2)C1 (single isomer, unassigned) [Example 19, but-2-ynyl 3-methyl-3-(4-(5-methyl-2-oxo-2,3-dihydro-1H-benzo[d]imidazol-1-yl)piperidin-1-yl)pyrrolidine-1-carboxylate] | 324
5 | Cc1ccc2c(c1)[nH]c(=O)n2C1CCN(C2(C)CCN(C(=O)OCCF)C2)CC1 (single isomer, unassigned) [Example 29, 2-fluoroethyl 3-methyl-3-(4-(5-methyl-2-oxo-2,3-dihydro-1H-benzo[d]imidazol-1-yl)piperidin-1-yl)pyrrolidine-1-carboxylate] | 166
6 | COC(=O)N1CCC(C)(N2CCC(n3c(=O)[nH]c4ccccc43)CC2)C1 (single isomer, unassigned) [Example 30, methyl 3-methyl-3-(4-(2-oxo-2,3-dihydro-1H-benzo[d]imidazol-1-yl)piperidin-1-yl)pyrrolidine-1-carboxylate] | 108
7 | CC#CCOC(=O)N1CCC(C)(N2CCC(n3c(=O)[nH]c4cc(F)ccc43)CC2)C1 (single isomer, unassigned) [Example 35, but-2-ynyl 3-(4-(5-fluoro-2-oxo-2,3-dihydro-1H-benzo[d]imidazol-1-yl)piperidin-1-yl)-3-methylpyrrolidine-1-carboxylate] | 56.9
8 | COC(=O)N1CCC(C)(N2CCC(n3c(=O)[nH]c4cc(F)ccc43)CC2)C1 (single isomer, unassigned) [Example 37, methyl 3-(4-(5-fluoro-2-oxo-2,3-dihydro-1H-benzo[d]imidazol-1-yl)piperidin-1-yl)-3-methylpyrrolidine-1-carboxylate] | 76.5
9 | CC1(N2CCC(n3c(=O)[nH]c4cc(F)ccc43)CC2)CCN(C(=O)OCCF)C1 (single isomer, unassigned) [Example 38, 2-fluoroethyl 3-(4-(5-fluoro-2-oxo-2,3-dihydro-1H-benzo[d]imidazol-1-yl)piperidin-1-yl)-3-methylpyrrolidine-1-carboxylate] | 112
10 | C#CCOC(=O)N1CCC(C)(N2CCC(n3c(=O)[nH]c4cc(C)ccc43)CC2)C1 (single isomer, unassigned) [Example 42, prop-2-ynyl 3-methyl-3-(4-(5-methyl-2-oxo-2,3-dihydro-1H-benzo[d]imidazol-1-yl)piperidin-1-yl)pyrrolidine-1-carboxylate] | 235
11 | COC(=O)N1CCC(C)(N2CCC(n3c(=O)[nH]c4cc(C)ccc43)CC2)C1 (single isomer, unassigned) [Example 46, methyl 3-methyl-3-(4-(5-methyl-2-oxo-2,3-dihydro-1H-benzo[d]imidazol-1-yl)piperidin-1-yl)pyrrolidine-1-carboxylate] | 132
12 | COC(=O)N1CCC(C)(N2CCC(n3c(=O)[nH]c4ccc(F)cc43)CC2)C1 (single isomer, unassigned) [Example 51, methyl 3-(4-(6-fluoro-2-oxo-2,3-dihydro-1H-benzo[d]imidazol-1-yl)piperidin-1-yl)-3-methylpyrrolidine-1-carboxylate] | 57.1
13 | CC1(N2CCC(n3c(=O)[nH]c4ccc(F)cc43)CC2)CCN(C(=O)OCCF)C1 (single isomer, unassigned) [Example 54, 2-fluoroethyl 3-(4-(6-fluoro-2-oxo-2,3-dihydro-1H-benzo[d]imidazol-1-yl)piperidin-1-yl)-3-methylpyrrolidine-1-carboxylate] | 92.8
14 | COC(=O)N1CCC(C)(N2CCC(n3c(=O)[nH]c4cc(F)c(F)cc43)CC2)C1 (single isomer, unassigned) [Example 59, methyl 3-(4-(5,6-difluoro-2-oxo-2,3-dihydro-1H-benzo[d]imidazol-1-yl)piperidin-1-yl)-3-methylpyrrolidine-1-carboxylate] | 77.6
15 | CC1(N2CCC(n3c(=O)[nH]c4cc(F)c(F)cc43)CC2)CCN(C(=O)OCCF)C1 (single isomer, unassigned) [Example 62, 2-fluoroethyl 3-(4-(5,6-difluoro-2-oxo-2,3-dihydro-1H-benzo[d]imidazol-1-yl)piperidin-1-yl)-3-methylpyrrolidine-1-carboxylate] | 79.8
16 | CCCOC(=O)N1CCC(C)(N2CCC(n3c(=O)[nH]c4ccc(F)cc43)CC2)C1 (single isomer, unassigned) [Example 63, propyl 3-(4-(6-fluoro-2-oxo-2,3-dihydro-1H-benzo[d]imidazol-1-yl)piperidin-1-yl)-3-methylpyrrolidine-1-carboxylate] | 344
17 | CCCOC(=O)N1CCC(C)(N2CCC(n3c(=O)[nH]c4ccc(F)cc43)CC2)C1 (single isomer, unassigned) [Example 64, propyl 3-(4-(6-fluoro-2-oxo-2,3-dihydro-1H-benzo[d]imidazol-1-yl)piperidin-1-yl)-3-methylpyrrolidine-1-carboxylate] | 80.1
18 | CC(C)OC(=O)N1CCC(C)(N2CCC(n3c(=O)[nH]c4ccc(F)cc43)CC2)C1 (single isomer, unassigned) [Example 65, isopropyl 3-(4-(6-fluoro-2-oxo-2,3-dihydro-1H-benzo[d]imidazol-1-yl)piperidin-1-yl)-3-methylpyrrolidine-1-carboxylate] | 104
19 | CC(C)OC(=O)N1CCC(C)(N2CCC(n3c(=O)[nH]c4ccc(F)cc43)CC2)C1 (single isomer, unassigned) [Example 66, isopropyl 3-(4-(6-fluoro-2-oxo-2,3-dihydro-1H-benzo[d]imidazol-1-yl)piperidin-1-yl)-3-methylpyrrolidine-1-carboxylate] | 50.2
20 | COC(=O)N1CCC(C)(N2CCC(N3C(=O)Cc4ccc(F)cc43)CC2)C1 (single isomer, unassigned) [Example 77, methyl 3-(4-(6-fluoro-2-oxoindolin-1-yl)piperidin-1-yl)-3-methylpyrrolidine-1-carboxylate] | 94.5
21 | CC(C)OC(=O)N1CCC(C)(N2CCC(n3c(=O)[nH]c4ccccc43)CC2)C1 (centres unmarked) [Example 3, isopropyl 3-methyl-3-(4-(2-oxo-2,3-dihydro-1H-benzo[d]imidazol-1-yl)piperidin-1-yl)pyrrolidine-1-carboxylate] | 108
22 | CC(C)OC(=O)N1CCC(C)(N2CCC(n3c(=O)[nH]c4cc(F)ccc43)CC2)C1 (centres unmarked) [Example 9, isopropyl 3-(4-(5-fluoro-2-oxo-2,3-dihydro-1H-benzo[d]imidazol-1-yl)piperidin-1-yl)-3-methylpyrrolidine-1-carboxylate] | 124
23 | COC(=O)N1CCC(C)(N2CCC(N3C(=O)Cc4ccccc43)CC2)C1 (centres unmarked) [Example 71, methyl 3-methyl-3-(4-(2-oxoindolin-1-yl)piperidin-1-yl)pyrrolidine-1-carboxylate] | 123

— patent US20090221642A1, “MUSCARINIC RECEPTOR AGONISTS, COMPOSITIONS, METHODS OF TREATMENT THEREOF, AND PROCESSES FOR PREPARATION THEREOF-176” (AstraZeneca AB, priority 2008, published 2009)
